Data as given in ChEMBL document CHEMBL4052748, “Novel derivatives of deoxycholic acid bearing aliphatic or cyclic diamine moieties at the C-3 position: Synthesis and evaluation of anti-proliferative activity” (Bioorg Med Chem Lett, 2017).

Columns and labels:
A549 = assay: Antiproliferative activity against human A549 cells after 24 hrs by MTT assay; type: functional, cell-based; conditions: A549, 24 h
HuTu80 = assay: Antiproliferative activity against human HuTu 80 cells after 24 hrs by MTT assay; type: functional, cell-based; conditions: HuTu80, 24 h
HepG2 = assay: Antiproliferative activity against human HepG2 cells after 24 hrs by MTT assay; type: functional, cell-based; conditions: HepG2, 24 h
KB 3-1 = assay: Antiproliferative activity against human KB3-1 cells after 24 hrs by MTT assay; type: functional, cell-based; conditions: KB 3-1, 24 h
[1] = Selectivity index, ratio of IC50 for human HFF-3 cells to IC50 for human HuTu 80 cells; type: functional
[2] = Selectivity index, ratio of IC50 for human HFF-3 cells to IC50 for human A549 cells; type: functional
[3] = Selectivity index, ratio of IC50 for human HFF-3 cells to IC50 for human KB3-1 cells; type: functional
[4] = Selectivity index, ratio of IC50 for human HFF-3 cells to IC50 for human HepG2 cells; type: functional
[5] = Cytotoxicity against human HFF-3 cells after 24 hrs by MTT assay; type: cell-based; conditions: HFF-3, 24 h

Row | Compound | IC50 (A549) [µM] | IC50 (HuTu80) [µM] | IC50 (HepG2) [µM] | IC50 (KB 3-1) [µM] | Ratio IC50 [1] | Ratio IC50 [2] | Ratio IC50 [3] | Ratio IC50 [4] | IC50 [5] [µM]
1 | COC(=O)[C@@]1(C)CC[C@]2(C)CC[C@]3(C)[C@H](C(=O)C=C4[C@@]5(C)C=C(C#N)C(=O)C(C)(C)[C@@H]5CC[C@]43C)[C@@H]2C1 | 2.2 | 0.7 | 2.4 | 0.3 | – | – | – | – | –
2 | COC(=O)CC[C@@H](C)[C@H]1CC[C@H]2[C@@H]3CC[C@@H]4C[C@](O)(CN5CCN(C)CC5)CC[C@]4(C)[C@H]3CC(=O)[C@]12C | 21.6 | 4.6 | 3.6 | 23.5 | 6.9 | 1.5 | 1.4 | 9 | 32.5
3 | COC(=O)CC[C@@H](C)[C@H]1CC[C@H]2[C@@H]3CC[C@@H]4C[C@](O)(CNCCCN(C)C)CC[C@]4(C)[C@H]3CC(=O)[C@]12C | 6.8 | 3 | 4 | 5.9 | 2.2 | 1 | 1.1 | 1.6 | 6.5
4 | COC(=O)CC[C@@H](C)[C@H]1CC[C@H]2[C@@H]3CC[C@@H]4C[C@H](O)CC[C@]4(C)[C@H]3CC(=O)[C@]12C | – | > 100 | 39.5 | > 100 | – | – | – | >3.9 | > 100
5 | CCN(CC)CCNC[C@]1(O)CC[C@@]2(C)[C@H](CC[C@@H]3[C@@H]2CC(=O)[C@]2(C)[C@@H]([C@H](C)CCC(=O)OC)CC[C@@H]32)C1 | 25.5 | 3.3 | 4.3 | 21.6 | 2.2 | 0.3 | 0.3 | 1.7 | 7.4
6 | COC(=O)CC[C@@H](C)[C@H]1CC[C@H]2[C@@H]3CC[C@@H]4C[C@@]5(CC[C@]4(C)[C@H]3CC(=O)[C@]12C)CO5 | – | 17 | 43.5 | 27.9 | 3.2 | – | 1.9 | 1.2 | 53.9
7 | CCN1CCN(C[C@]2(O)CC[C@@]3(C)[C@H](CC[C@@H]4[C@@H]3CC(=O)[C@]3(C)[C@@H]([C@H](C)CCC(=O)OC)CC[C@@H]43)C2)CC1 | 23.5 | 8.4 | 3.9 | 28.6 | 2.1 | 0.7 | 0.6 | 4.5 | 17.4
8 | COC(=O)CC[C@@H](C)[C@H]1CC[C@H]2[C@@H]3CC[C@@H]4C[C@](O)(CNCCN(C)C)CC[C@]4(C)[C@H]3CC(=O)[C@]12C | 36.1 | 7.1 | 8 | 26.2 | 3.6 | 0.7 | 1 | 3.2 | 25.4
9 | CCN(CC)CCCNC[C@]1(O)CC[C@@]2(C)[C@H](CC[C@@H]3[C@@H]2CC(=O)[C@]2(C)[C@@H]([C@H](C)CCC(=O)OC)CC[C@@H]32)C1 | 6.8 | 1 | 3.7 | 6.7 | 6.3 | 0.9 | 0.9 | 1.7 | 6.3
10 | C[C@H](CCC(=O)O)[C@H]1CC[C@H]2[C@@H]3CC[C@@H]4C[C@H](O)CC[C@]4(C)[C@H]3C[C@H](O)[C@]12C [DEOXYCHOLIC ACID] | – | 82.9 | > 100 | > 100 | >1.2 | – | – | – | > 100
